{
  "source": "patent US20240302353A1",
  "about": "“CELL CULTURE DEVICE, KIT FOR CELL CULTURE, AND CELL CULTURE METHOD” (FUJIFILM Corporation, priority 2021, published 2024)",
  "test_system": "intestinal epithelial cells F-hiSIEC",
  "experiment": "Permeation test of Lucifer yellow across intestinal epithelial cell sheet on cell culture insert",
  "type": "in vitro ADME",
  "details": "for Permeability coefficient (Papp) Average (mean): 110 μM Lucifer yellow/HBSS, 37° C., 1 hour",
  "description": "One gas absorbent (oxygen scavenger) (Anaeropack: Mitsubishi Chemical Corporation) was installed in the upper tank of the cell culture device in FIG. 1, the upper tank portion was sealed, and the sealed upper tank portion was installed on the 6-well plate, which was the lower tank portion. In addition, intestinal epithelial cells F-hiSIEC (FUJIFILM Corporation) were seeded on a cell culture insert (Millipore) coated with Matrigel, and cultured for 9 days according to a manual using F-hiSIEC Culture Medium (FUJIFILM Corporation). 150 μL of F-hiSIEC Culture Medium (FUJIFILM Corporation) was added to an upper surface of the cell culture insert on which the cells on the 9th day of the culture had been seeded, and the cell culture insert was installed in the device from a lower side of the upper tank of the device, using the insertion tool shown in FIG. 5. While sandwiching the cell culture insert, 1 mL of a culture medium was added to a well plate of the lower tank, the upper tank portion of the device was installed in the well plate, and the entire device was placed in a CO2 incubator for culture for 72 hours. After the culture, a trans-epithelial electrical resistance (TEER) value of the intestinal epithelial cells was measured with an EVOM2 system. In addition, the permeation rate (Papp) of Lucifer yellow and the gene expression of various intestinal epithelial cell markers were compared with cells cultured under aerobic conditions in both the upper tank and the lower tank. The aerobic conditions in the upper tank and the lower tank mean cells cultured by installing a lid attached to the well plate without using the co-culture device. In the permeation test of Lucifer yellow, the upper and lower culture media in the insert containing the cells are substituted with HBSS and incubated at 37° C. for 1 hour. […] After 1 hour, the amount of substance which had passed through the lower part of the cell culture insert was quantified by a plate reader (Enspire, PerkinElmer Inc.), and the permeation rate and the permeability coefficient (Papp) were calculated.",
  "data": [
    {"substance": "Lucifer yellow", "values": [
      {"measurement": "Permeability coefficient (Papp) Average (mean)", "setting": "F-hiSIEC cells cultured 72 hours in the cell culture device (upper tank anaerobic, lower tank aerobic)", "result": 1.54, "unit": "×10⁻⁶ cm/s"},
      {"measurement": "Permeability coefficient (Papp) Average (mean)", "setting": "F-hiSIEC cells cultured 72 hours under aerobic conditions in both upper and lower tank (no device)", "result": 0.7, "unit": "×10⁻⁶ cm/s"},
      {"measurement": "Increase of Papp in anaerobic cultured cells as compared with aerobic cells", "setting": "anaerobic vs aerobic cultured F-hiSIEC cells, 72 hours culture", "result": "approximately 2 times"}
    ]}
  ]
}
